Results published in patent US20090156648A1, “Preparations containing pyridoxine and alpha-hydroxyisocaproic acid (HICA)” (IOVATE T. & P. INC., priority 2007, published 2009).

Assay: hygroscopicity and storage stability of the salt as described
Type: physicochemical
Conditions: crystalline powder

- hygroscopic nature: non-hygroscopic
- stability in storage: stable in storage
Substance: pyridoxine α-hydroxyisocaproate
